Experimental data reported in US20020004493A1, “Method for the treatment of apolipoprotein E related diseases” (priority 1996, published 2002).
Where two headings read alike, the source gives them in different places.

Experiments:
[1] = tested on: toxic apoE fragments (22 kDa) on embryonic chick sympathetic neurons; assay: Protection of sympathetic neurons against toxic apoE fragments (vital dye survival count); assay type: cell-based, chicken; conditions: 10 min pre-incubation with compound, then toxic 22 kDa apoE fragments, overnight, read-out: C50, the concentration required to prevent 50% cell death as compared to control
Source text: The purified apoE was then digested with thrombin and the resulting fragments separated by HPLC gel filtration chromatography (Bio SEC-Bio Rad). After buffer exchange and lyophilization, the purified 22 kDa fragment was subjected to amino acid analysis. For neurotoxicity studies, lumbar sympathetic chain ganglia were isolated from embryonic day nine chicken embryos (Spafas, Inc., Roanoke, Ill.) under sterile conditions in unsupplemented Ham's F12 medium (Sigma). The dissected chains were exposed to trypsin (0.25%) for 20 minutes at 37° C. The trypsin was inactivated by addition of fetal bovine serum. The chains were washed three times with medium and then triturated with flamed Pasteur pipettes to dissociate the cells. The cells were resuspended in Neurobasal medium (Gibco) and plated into 96-well plates pretreated with poly-ornithine. Dishes were incubated at 37° C. with 5% CO2/95% air. Following overnight incubation, the cells were treated with a range of concentrations of various compounds diluted in F12 medium supplemented with 100 μM putrescine, 20 nM progesterone, 100 μg/ml human transferrin, 30 nM selenium and 1% antibiotics (penicillin-streptomycin). The neuronal cells were pre-incubated for 10 min at 37° C. with a predetermined concentration of compound. The toxic fragments were then added to the culture medium while controls used the corresponding vehicle without the toxic fragments. After overnight incubation, the cells were labeled with a vital dye (5-carboxyfluorescein diacetate, acetoxymethyl ester, Molecular Probes, Eugene, Oreg.) for 30 minutes. The wells were washed with fresh F12 medium and images of the stained cells were collected from each well using a Diaphot inverted fluorescence microscope connected to a MacIntosh IIfx computer equipped with a Framegrabber video card.

[2] = tested on: apoE peptide toxicity (141-149 domain); conditions: cited from earlier work; for effect on apoE peptide-mediated toxicity: polyanionic glycosaminoglycans
[3] = tested on: E3- or E4-derived 22 kDa apoE fragment on embryonic chick sympathetic neurons; assay: Effects of apoE 22 kDa peptides on sympathetic neurons in culture, with dermatan sulfate pre-incubation; assay type: cell-based, chicken; conditions: 4 μM dermatan sulfate, 10 min pre-incubation; overnight exposure to E3- or E4-derived 22 kDa fragment
Protocol: Since the 22 kDa fragment contains the domain associated with toxicity and corresponds to the major N-terminal proteolytic fragment of apoE, assessment of the efficacy of a compound can first be screened by measuring the inhibition of the 22 kDa toxicity in vitro. The 22 kDa thrombolytic cleavage fragment product of apoE is neurotoxic and is purified from medium of HEK cells transfected with the gene for human apoE4. Neuronal toxicity is then assessed using dissociated embryonic chick sympathetic neurons in 96 well microtiter plates. Following the addition of the fragments, the cultures are incubated overnight. Viability is then assessed by vital dye staining.
Transfected HEK cells are cultured as previously described (LaDu, M. J., et al., J. Biol. Chem. 258:12348-54 (1983)). The apoE is concentrated from conditioned medium by ultrafiltration (10 kDa cut-off membrane, Amicon) followed by heparin column chromatography (heparin-coupled agarose beads, Sigma). […] The wells are washed with fresh F12 medium and images of the stained cells are collected from each well by using a Diaphot inverted fluorescence microscope connected to a Macintosh IIfx computer equipped with a Framegrabber video card. The number of labeled neurons is quantified from the stored images with NIH Image software (version 1.57).

[4] = Gallus gallus, Sympathetic neuron

Compound	EC50 [1] [µM]	further results
COc1cc(-c2ccc(N=Nc3ccc4c(S(=O)(=O)O)cc(S(=O)(=O)O)c(N)c4c3O)c(OC)c2)ccc1N=Nc1ccc2c(S(=O)(=O)O)cc(S(=O)(=O)O)c(N)c2c1O [Chicago sky blue 6b]	15	
CCOc1ccc(Nc2ccc(C(=C3C=CC(=[N+](CC)Cc4cccc(S(=O)(=O)[O-])c4)C=C3C)c3ccc(N(CC)Cc4cccc(S(=O)(=O)O)c4)cc3C)cc2)cc1 [Coomassie brilliant blue G-250]	40	
CCOc1ccc(Nc2ccc(C(=C3C=CC(=[N+](CC)Cc4cccc(S(=O)(=O)[O-])c4)C=C3)c3ccc(N(CC)Cc4cccc(S(=O)(=O)O)c4)cc3)cc2)cc1 [Coomassie brilliant blue R-250]	35	
Cc1cc(-c2ccc(N=Nc3ccc4c(S(=O)(=O)O)cc(S(=O)(=O)O)c(N)c4c3O)c(C)c2)ccc1N=Nc1ccc2c(S(=O)(=O)O)cc(S(=O)(=O)O)c(N)c2c1O [Evan's blue]	8	
O=S(=O)(O)c1ccc2c(N=Nc3ccc(S(=O)(=O)O)c4ccccc34)c(O)c(S(=O)(=O)O)cc2c1 [amaranth]	25	
O=C(O)C1=CC(=C(c2ccc(O)c(C(=O)O)c2)c2ccc(O)c(C(=O)O)c2)C=CC1=O [aurintricarboxylic acid]		EC50 [1, 4]: 11 µM
Cc1cc(-c2ccc(N=Nc3cc(S(=O)(=O)O)c4ccccc4c3N)c(C)c2)ccc1N=Nc1cc(S(=O)(=O)O)c2ccccc2c1N [benzopurpurin 4b]	50	
O=S(=O)(O)c1ccc(N=Nc2ccc(N=Nc3c(O)ccc4ccccc34)c(S(=O)(=O)O)c2)cc1 [biebrich scarlet]	40	
Cc1c(C2(c3cc(Br)c(O)c(Br)c3C)OS(=O)(=O)c3ccccc32)cc(Br)c(O)c1Br [bromocresol green]	25	
O=S1(=O)OC(c2cc(Br)c(O)c(Br)c2)(c2cc(Br)c(O)c(Br)c2)c2ccccc21 [bromophenol blue]	16	
O=C(O)c1cc2ccccc2c(N=Nc2c(O)cc(S(=O)(=O)O)c3ccccc23)c1O [calconcarboxylic acid]	10	
Nc1c(S(=O)(=O)O)cc(Nc2ccc(Nc3nc(Cl)nc(Nc4ccccc4S(=O)(=O)O)n3)c(S(=O)(=O)O)c2)c2c1C(=O)c1ccccc1C2=O [cibacron blue]		EC50 [1, 4]: 20 µM
Nc1c(/N=N/c2ccc(-c3ccc(/N=N/c4cc(S(=O)(=O)O)c5ccccc5c4N)cc3)cc2)cc(S(=O)(=O)O)c2ccccc12 [congo red]		EC50 [1, 4]: 25 µM
COc1cc(-c2ccc(N=Nc3c(S(=O)(=O)O)cc4cc(S(=O)(=O)O)cc(N)c4c3O)c(OC)c2)ccc1N=Nc1c(S(=O)(=O)O)cc2cc(S(=O)(=O)O)cc(N)c2c1O [direct blue 15]	18	
CCN(Cc1cccc(S(=O)(=O)O)c1)c1ccc(C(=C2C=CC(=[N+](CC)Cc3cccc(S(=O)(=O)[O-])c3)C=C2)c2ccc(S(=O)(=O)O)cc2)cc1 [light green S.F. yellowish]	40	
O=S(=O)(O)c1ccc(N=C2C=CC(=C(c3ccc(Nc4ccc(S(=O)(=O)O)cc4)cc3)c3ccc(Nc4ccc(S(=O)(=O)O)cc4)cc3)C=C2)cc1 [methyl blue]	20	

Compound	EC50 [1] [µM]	further results
O=S(=O)(O)c1ccc(N=Nc2ccc(N=Nc3c(O)c(S(=O)(=O)O)cc4cc(S(=O)(=O)O)ccc34)c(S(=O)(=O)O)c2)cc1 [ponceau S]	5	
O=C1OC(c2ccc(O)c(S(=O)(=O)O)c2)(c2ccc(O)c(S(=O)(=O)O)c2)c2c(Br)c(Br)c(Br)c(Br)c21 [sulfobromophthalein]		EC50 [1, 4]: 32 µM
O=S(=O)(O)c1ccccc1N=Nc1c(S(=O)(=O)O)cc2cc(S(=O)(=O)O)c(N=Nc3ccccc3S(=O)(=O)O)c(O)c2c1O [sulfonazo III]	45	
Cc1ccc(C(=O)Nc2ccc(S(=O)(=O)O)c3cc(S(=O)(=O)O)cc(S(=O)(=O)O)c23)cc1NC(=O)c1cccc(NC(=O)Nc2cccc(C(=O)Nc3cc(C(=O)Nc4ccc(S(=O)(=O)O)c5cc(S(=O)(=O)O)cc(S(=O)(=O)O)c45)ccc3C)c2)c1 [suramin sodium, reference compound]		EC50 [1, 4]: 5 µM
Cc1ccc2nc(-c3ccc(N=NNc4ccc(-c5nc6ccc(C)c(S(=O)(=O)O)c6s5)cc4)cc3)sc2c1S(=O)(=O)O [thiazol yellow G]	25	
Cc1cc(-c2ccc(/N=N/c3c(S(=O)(=O)O)cc4cc(S(=O)(=O)O)cc(N)c4c3O)c(C)c2)ccc1/N=N/c1c(S(=O)(=O)O)cc2cc(S(=O)(=O)O)cc(N)c2c1O [trypan blue]		EC50 [1, 4]: 20 µM
E211-243: apoE peptide containing a second heparin-binding site but lacking the 141-149 sequence (GERLRARMEEMGSRTRDRLDEVKEQVAEVRAKL; UniProt P02649 229-261, looked up, fragment) [reference compound]		bioactivity (toxicity) of apoE peptide ([2]; peptide with second heparin-binding site, lacking the 141-149 sequence): inactive
aniline blue	25	
chondroitin sulfate		effect on apoE peptide-mediated toxicity [2]: ablation of peptide-mediated toxicity
dermatan sulfate		toxicity of 22 kDa apoE fragment in treated neurons [3]: toxicity is completely ablated
dextran sulfate [dextran sulfate (5 kDa)]	0.8	
heparan sulfate	1	effect on apoE peptide-mediated toxicity [2]: ablation of peptide-mediated toxicity
heparin [reference compound]		effect on apoE peptide-mediated toxicity [2]: ablation of peptide-mediated toxicity
pentosan sulfate [reference compound]	1.5	
potassium polyvinyl sulfate	0.035	
